Holding throughout (format): cell-based
Assay [1] deals with BTK (Homo sapiens, UniProt Q06187). Nature of the assay: BTK degradation, DC50 and Dmax of Table 1 (cell line not given). Further details: endogenous in cells. The settings on record: for DC50: concentration giving 50% reduction of BTK expression level.
Assay [2] concerns JeKo-1 cells. Nature of the assay: Antiproliferative effect, MTS cell viability assay, JeKo-1 cells. The conditions noted are these: Homo sapiens; JeKo-1 mantle cell lymphoma cells; read-out: IC50 (anti-proliferation) JeKO-1 cells. An outline of the steps:
(§1)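 Tested at six concentrations (0 to 10 μM in tenfold steps), 72 h; viability by MTS, A490.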
(Tetrazolium dyes change colour on reduction, which living cells bring about.)

The test system of assay [3] is Mino cells. Briefly: Antiproliferative effect, MTS cell viability assay, Mino cells. The settings on record: Homo sapiens, MINO, Mino mantle cell lymphoma cells; read-out: IC50 (anti-proliferation) Mino cells. The method, boiled down:
as §1

SMILES strings stand for the structures. pIC50: −log10 of the molar value.

Sequence of BTK (Q06187 whole entry): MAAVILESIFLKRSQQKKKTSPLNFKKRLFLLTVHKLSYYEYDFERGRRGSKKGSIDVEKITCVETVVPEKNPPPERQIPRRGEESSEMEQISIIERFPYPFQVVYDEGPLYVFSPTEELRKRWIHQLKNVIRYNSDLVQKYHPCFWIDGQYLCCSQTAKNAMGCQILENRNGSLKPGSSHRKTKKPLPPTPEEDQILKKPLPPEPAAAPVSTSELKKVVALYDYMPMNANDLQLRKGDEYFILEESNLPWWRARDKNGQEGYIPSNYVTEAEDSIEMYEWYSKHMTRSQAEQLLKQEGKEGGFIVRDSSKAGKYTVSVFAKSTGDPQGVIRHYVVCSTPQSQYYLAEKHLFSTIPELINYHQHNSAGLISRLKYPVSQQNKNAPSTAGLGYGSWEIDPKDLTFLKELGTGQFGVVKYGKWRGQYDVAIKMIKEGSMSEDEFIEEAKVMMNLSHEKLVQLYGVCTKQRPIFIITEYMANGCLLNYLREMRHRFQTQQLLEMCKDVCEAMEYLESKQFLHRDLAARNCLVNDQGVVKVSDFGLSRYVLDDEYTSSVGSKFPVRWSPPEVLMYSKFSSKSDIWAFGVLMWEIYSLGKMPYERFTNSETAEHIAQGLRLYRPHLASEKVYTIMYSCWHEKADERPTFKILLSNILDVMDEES

A word on the Dmax: it is the largest share of the target that was removed. High values mean a fuller loss of target, low ones a partial loss of target. For orientation: DC50 means the midpoint of the concentration-degradation curve. Low readings indicate degradation at low concentration, high ones degradation only at high concentration. As for `Nc1ncnc2c1c(-c1ccc(Oc3ccccc3)cc1)nn2[C@@H]1CCCN(C(=O)N2CCC(c3ccc4c(c3)C(=O)N(C3CCC(=O)NC3=O)C4=O)CC2)C1` (stereo partly drawn) [Compound 47, 5-(1-((R)-3-(4-amino-3-(4-phenoxyphenyl)-1H-pyrazolo[3,4-d]pyrimidin-1-yl)piperidine-1-carbonyl)piperidin-4-yl)-2-(2,6-dioxopiperidin-3-yl)isoindoline-1,3-dione], the Dmax in assay [1] is > 50%. In assay [1], the DC50 is > 0.05 µM. The pIC50 in assay [2] and in assay [3] was < 5.00 in each case.

Turning to `Nc1ncnc2c1c(-c1ccc(Oc3ccccc3)cc1)nn2[C@@H]1CCCN(C(=O)N2CCC(c3ccc4c(c3)CN(C3CCC(=O)NC3=O)C4=O)CC2)C1` (stereo partly drawn) [Compound 48, 3-(5-(1-((R)-3-(4-amino-3-(4-phenoxyphenyl)-1H-pyrazolo[3,4-d]pyrimidin-1-yl)piperidine-1-carbonyl)piperidin-4-yl)-1-oxoisoindolin-2-yl)piperidine-2,6-dione], in assay [1], the Dmax was > 50% and the DC50 is > 0.05 µM. Further, the pIC50 in assay [2] is < 5.00. Further, the pIC50 in assay [3] is < 5.00.

In the case of `Nc1ncnc2c1c(-c1ccc(Oc3ccccc3)cc1)nn2[C@@H]1CCCN(C(=O)N2CCC(C3CCN(c4ccc5c(c4)CN(C4CCC(=O)NC4=O)C5=O)CC3)CC2)C1` (stereo partly drawn) [Compound 50, 3-(5-(1′-((R)-3-(4-amino-3-(4-phenoxyphenyl)-1H-pyrazolo[3,4-d]pyrimidin-1-yl)piperidine-1-carbonyl)-[4,4′-bipiperidin]-1-yl)-1-oxoisoindolin-2-yl)piperidine-2,6-dione], in assay [1], the Dmax was > 90% and the DC50 lay within 0.01 to 0.05 µM. In addition, the pIC50 in assay [2] was 5.00 to 6.00. Besides, the pIC50 in assay [3] is 5.00 to 6.00.

For `Nc1ncnc2c1c(-c1ccc(Oc3ccccc3)cc1)nn2[C@@H]1CCCN(C(=O)N2CCC(N3CCC(c4ccc5c(c4)C(=O)N(C4CCC(=O)NC4=O)C5=O)CC3)CC2)C1` (stereo partly drawn) [Compound 53, 5-(1′-((R)-3-(4-amino-3-(4-phenoxyphenyl)-1H-pyrazolo[3,4-d]pyrimidin-1-yl)piperidine-1-carbonyl)-[1,4′-bipiperidin]-4-yl)-2-(2,6-dioxopiperidin-3-yl)isoindoline-1,3-dione], in assay [1], the greatest degradation seen (Dmax) is > 90% and the 50% degradation concentration (DC50) is < 0.01 µM. In addition, the pIC50 in assay [2] was 5.00 to 6.00. Further, the pIC50 in assay [3] is > 6.00.

As to `Nc1ncnc2c1c(-c1ccc(Oc3ccccc3)cc1)nn2[C@@H]1CCCN(C(=O)N2CCC(N3CCC(c4ccc5c(c4)CN(C4CCC(=O)NC4=O)C5=O)CC3)CC2)C1` (stereo partly drawn) [Compound 54, 3-(5-(1′-((R)-3-(4-amino-3-(4-phenoxyphenyl)-1H-pyrazolo[3,4-d]pyrimidin-1-yl)piperidine-1-carbonyl)-[1,4′-bipiperidin]-4-yl)-1-oxoisoindolin-2-yl)piperidine-2,6-dione], in assay [1], the Dmax was > 90% and the DC50 was < 0.01 µM. Also, in assay [2], the pIC50 was > 6.00. Further, the pIC50 in assay [3] was > 6.00.

For `Nc1ncnc2c1c(-c1ccc(Oc3ccccc3)cc1)nn2[C@@H]1CCCN(C(=O)N2CCC(CN3CCN(c4ccc5c(c4)CN(C4CCC(=O)NC4=O)C5=O)CC3)CC2)C1` (stereo partly drawn) [Compound 56, 3-(5-(4-((1-((R)-3-(4-amino-3-(4-phenoxyphenyl)-1H-pyrazolo[3,4-d]pyrimidin-1-yl)piperidine-1-carbonyl)piperidin-4-yl)methyl)piperazin-1-yl)-1-oxoisoindolin-2-yl)piperidine-2,6-dione], in assay [1], the Dmax was > 90% and the DC50 was < 0.01 µM. Also, the pIC50 in assay [2] is > 6.00. Further, the pIC50 in assay [3] was > 6.00.

For `Nc1ncnc2c1c(-c1ccc(Oc3ccccc3)cc1)nn2[C@@H]1CCCN(C(=O)N2CCN(CC3CCN(c4ccc5c(c4)C(=O)N(C4CCC(=O)NC4=O)C5=O)CC3)CC2)C1` (stereo partly drawn) [Compound 57, 5-(4-((4-((R)-3-(4-amino-3-(4-phenoxyphenyl)-1H-pyrazolo[3,4-d]pyrimidin-1-yl)piperidine-1-carbonyl)piperazin-1-yl)methyl)piperidin-1-yl)-2-(2,6-dioxopiperidin-3-yl)isoindoline-1,3-dione], in assay [1], the maximal degradation (Dmax) is > 90% and the DC50 lay in the range of 0.01 to 0.05 µM. For the same molecule, the pIC50 in assay [2] was 5.00 to 6.00. Besides, in assay [3], the pIC50 was 5.00 to 6.00.

As to `Nc1ncnc2c1c(-c1ccc(Oc3ccccc3)cc1)nn2[C@@H]1CCCN(C(=O)N2CCN(CC3CCN(c4ccc5c(c4)CN(C4CCC(=O)NC4=O)C5=O)CC3)CC2)C1` (stereo partly drawn) [Compound 58, 3-(5-(4-((4-((R)-3-(4-amino-3-(4-phenoxyphenyl)-1H-pyrazolo[3,4-d]pyrimidin-1-yl)piperidine-1-carbonyl)piperazin-1-yl)methyl)piperidin-1-yl)-1-oxoisoindolin-2-yl)piperidine-2,6-dione], the greatest degradation seen (Dmax) in assay [1] is > 90%. Also, the DC50 in assay [1] was in the range of 0.01 to 0.05 µM. Besides, the pIC50 in assay [2] and in assay [3] was > 6.00 each time.

For `Nc1ncnc2c1c(-c1ccc(Oc3ccccc3)cc1)nn2[C@@H]1CCCN(C(=O)N2CCC(CC3CCN(c4ccc5c(c4)C(=O)N(C4CCC(=O)NC4=O)C5=O)CC3)CC2)C1` (stereo partly drawn) [Compound 59, 5-(4-((1-((R)-3-(4-amino-3-(4-phenoxyphenyl)-1H-pyrazolo[3,4-d]pyrimidin-1-yl)piperidine-1-carbonyl)piperidin-4-yl)methyl)piperidin-1-yl)-2-(2,6-dioxopiperidin-3-yl)isoindoline-1,3-dione], the Dmax in assay [1] was > 90%. Further, the DC50 in assay [1] fell in the range of 0.01 to 0.05 µM. Also, the pIC50 in assay [2] and in assay [3] was > 6.00 in each case.

As for `Nc1ncnc2c1c(-c1ccc(Oc3ccccc3)cc1)nn2[C@@H]1CCCN(C(=O)N2CCC(CC3CCN(c4ccc5c(c4)CN(C4CCC(=O)NC4=O)C5=O)CC3)CC2)C1` (stereo partly drawn) [Compound 60, 3-(5-(4-((1-((R)-3-(4-amino-3-(4-phenoxyphenyl)-1H-pyrazolo[3,4-d]pyrimidin-1-yl)piperidine-1-carbonyl)piperidin-4-yl)methyl)piperidin-1-yl)-1-oxoisoindolin-2-yl)piperidine-2,6-dione], in assay [1], the Dmax was > 90% and the DC50 was < 0.01 µM. Besides, the pIC50 in assay [2] was > 6.00. In assay [3], the pIC50 was > 6.00.

As for `Nc1ncnc2c1c(-c1ccc(Oc3ccccc3)cc1)nn2[C@@H]1CCCN(C(=O)N2CCC(CN3CCC(c4ccc5c(c4)C(=O)N(C4CCC(=O)NC4=O)C5=O)CC3)CC2)C1` (stereo partly drawn) [Compound 61, 5-(1-((1-((R)-3-(4-amino-3-(4-phenoxyphenyl)-1H-pyrazolo[3,4-d]pyrimidin-1-yl)piperidine-1-carbonyl)piperidin-4-yl)methyl)piperidin-4-yl)-2-(2,6-dioxopiperidin-3-yl)isoindoline-1,3-dione], in assay [1], the Dmax is > 90% and the DC50 was 0.01 to 0.05 µM. In addition, in assay [2], the pIC50 was > 6.00. Further, in assay [3], the pIC50 was > 6.00.

`Nc1ncnc2c1c(-c1ccc(Oc3ccccc3)cc1)nn2[C@@H]1CCCN(C(=O)N2CCC(CN3CCC(c4ccc5c(c4)CN(C4CCC(=O)NC4=O)C5=O)CC3)CC2)C1` (stereo partly drawn) [Compound 62, 3-(5-(1-((1-((R)-3-(4-amino-3-(4-phenoxyphenyl)-1H-pyrazolo[3,4-d]pyrimidin-1-yl)piperidine-1-carbonyl)piperidin-4-yl)methyl)piperidin-4-yl)-1-oxoisoindolin-2-yl)piperidine-2,6-dione]: in assay [1], the Dmax is > 90% and the DC50 lay in the range of 0.01 to 0.05 µM. In addition, the pIC50 in assay [2] is > 6.00. Moreover, the pIC50 in assay [3] is > 6.00.

As to `Nc1ncnc2c1c(-c1ccc(Oc3ccccc3)cc1)nn2[C@@H]1CCCN(C(=O)N2CCC(CCN3CCN(c4ccc5c(c4)CN(C4CCC(=O)NC4=O)C5=O)CC3)CC2)C1` (stereo partly drawn) [Compound 64, 3-(5-(4-(2-(1-((R)-3-(4-amino-3-(4-phenoxyphenyl)-1H-pyrazolo[3,4-d]pyrimidin-1-yl)piperidine-1-carbonyl)piperidin-4-yl)ethyl)piperazin-1-yl)-1-oxoisoindolin-2-yl)piperidine-2,6-dione], in assay [1], the greatest degradation seen (Dmax) was > 90% and the DC50 is < 0.01 µM. In addition, the pIC50 in assay [2] is 5.00 to 6.00. The pIC50 in assay [3] is > 6.00.

Consider `Nc1ncnc2c1c(-c1ccc(Oc3ccccc3)cc1)nn2[C@@H]1CCCN(C(=O)N2CCN(CCN3CCN(c4ccc5c(c4)C(=O)N(C4CCC(=O)NC4=O)C5=O)CC3)CC2)C1` (stereo partly drawn) [Compound 65, 5-(4-(2-(4-((R)-3-(4-amino-3-(4-phenoxyphenyl)-1H-pyrazolo[3,4-d]pyrimidin-1-yl)piperidine-1-carbonyl)piperazin-1-yl)ethyl)piperazin-1-yl)-2-(2,6-dioxopiperidin-3-yl)isoindoline-1,3-dione], for which, in assay [1], the Dmax is > 90% and the DC50 was < 0.01 µM. Besides, in assay [2], the pIC50 is 5.00 to 6.00. The pIC50 in assay [3] is 5.00 to 6.00.

In the case of `Nc1ncnc2c1c(-c1ccc(Oc3ccccc3)cc1)nn2[C@@H]1CCCN(C(=O)N2CCN(CCN3CCN(c4ccc5c(c4)CN(C4CCC(=O)NC4=O)C5=O)CC3)CC2)C1` (stereo partly drawn) [Compound 66, 3-(5-(4-(2-(4-((R)-3-(4-amino-3-(4-phenoxyphenyl)-1H-pyrazolo[3,4-d]pyrimidin-1-yl)piperidine-1-carbonyl)piperazin-1-yl)ethyl)piperazin-1-yl)-1-oxoisoindolin-2-yl)piperidine-2,6-dione], in assay [1], the Dmax is > 90% and the DC50 was < 0.01 µM. Besides, in assay [2], the pIC50 is > 6.00. The pIC50 in assay [3] is 5.00 to 6.00.

On to `Nc1ncnc2c1c(-c1ccc(Oc3ccccc3)cc1)nn2[C@@H]1CCCN(C(=O)N2CCN(CCC3CCN(c4ccc5c(c4)C(=O)N(C4CCC(=O)NC4=O)C5=O)CC3)CC2)C1` (stereo partly drawn) [Compound 67, 5-(4-(2-(4-((R)-3-(4-amino-3-(4-phenoxyphenyl)-1H-pyrazolo[3,4-d]pyrimidin-1-yl)piperidine-1-carbonyl)piperazin-1-yl)ethyl)piperidin-1-yl)-2-(2,6-dioxopiperidin-3-yl)isoindoline-1,3-dione], for which, in assay [1], the maximal degradation (Dmax) was > 90% and the DC50 is < 0.01 µM. In addition, the pIC50 in assay [2] is 5.00 to 6.00. In addition, the pIC50 in assay [3] is 5.00 to 6.00.

The record behind these values is patent US12139492B2 (Endotarget Inc., priority 2021, dated 2024).
